US4645760A, “Activated aminoglycosides and aminoglycoside-aminocyclitols pharmaceutical compositions and method of use” (priority 1983, dated 1987)
Structures can show the parent of a compound that is named as a salt.

Tests used:
hydroxyl free radicals = assay: hydroxyl free radical spin-adduct formation by Electron Paramagnetic Resonance; assay type: biochemical; settings: spin traps ntb or DMPO; xanthine/xanthine oxidase, pH 7.8; millimolar drug
Description: (§1) The auto-oxidation of epinephrine is blocked on a mole-to-mole basis by aminoglycosides and aminoglycoside-aminocyclitols. […] Other colorimetric or chemiluminescence assays for superoxide or hydroxyl radicals which use dyes or other reagents that can develop color selectively in the presence of these radicals can also form the basis of rapid photometric assays for parent aminoglycoside and aminoglycoside-aminocyclitol levels in biological or other aqueous solutions. The degree to which colored products are blocked by the aminoglycoside or the aminoglycoside-aminocyclitol compound would be directly proportional to the concentration of aminoglycosides and aminoglycoside-aminocyclitol compounds. Representative dyes and reactants include the following non-limitative list:
Two spin traps were examined with the same conclusion, nitrosotertiary-butyl (ntb) and 5,5-dimethyl-1-pyrroline-1-oxide. The reaction mixture used to produce hydroxyl radical included 10^-4 M xanthine, 6×10^-8 M xanthine oxidase, 10^-3 EDTA, 10^-4 M spin trap (DMPO or ntb), 8.9×10^-5 M H2 O2, 0.1M potassium phosphate buffer; final pH--7.8. The free radical signals were directly monitored with and without the antibiotics by using the techniques of Electron Paramagnetic Resonance starting 2 minutes after reaction initiation. The scan range=100 Gauss; time constant=0.064 sec; modulation amplitude=1 Gauss; Microwave power=1 Mw; Microwave frequency=9.418 GHz; Field set=3350 Gauss; scan time=20 seconds; modulation frequency=100 KHz. AH =AN =14.9 G.

[1] = system: bacteria (E. coli, Pseudomona aeruginosa); assay: bacterial killing by aminoglycosides (gentamicin, kanamycin) with coincubated enzyme; assay type: cell-based; settings: coincubation, extracellular enzyme
B. subtilis = assay: antibiotic disc diffusion after riboflavin/methionine/UV activation; assay type: cell-based; settings: for potency enhancement of mixture of activated compound and parent compound: 2.8×10^-5 M riboflavin, 0.01M methionine, half hour uv light; for potency after coincubation with irradiated riboflavin vs riboflavin-free parent solution: Example 5, methionine, 365 nm, half hour
Method: The parent compounds in the above table were subjected to two synthetic activation processes according to the present invention. As set forth below, the parent compound was incubated with 2.8×10^-5 M riboflavin and 0.01M methionine (a hydrogen donor) for a half hour in the presence of a uv light.
A solution of […] riboflavin, and a hydrogen donor such as 0.01M methionine, was irradiated with ultraviolet light at 365 nm for a half hour to produce oxygen-free radicals.

epinephrine autoxidation = epinephrine autoxidation inhibition assay (oxygen radical reactivity); assay type: biochemical; settings: for IC50: 25° C., 0.1M sodium carbonate, pH 10.2, A320, sulfate form, read-out: (A) Molarity for 50% inhibition of epinephrine autoxidation; for relative molar ratio for 50% inhibition: KM:SM:NM:GM; for B/A Molar ratio (epinephrine molarity / molarity for 50% inhibition): pH 10.2, 25° C.
Method: The oxygen radical reactivity of 4-aminoglycosides KM, streptomycin (SM), neomycin (NM), and gentamicin (GM) was tested using a previously described modification of the commonly used epinephrine autoxidation assay. […] Further studies are required to determine the identification of the reacting active oxygen species (e.g. singlet oxygen, hydroperoxy radicals, superoxide radicals, hydroxyl radicals, or others).
Reactions were performed at 25° C.; in 0.1M sodium carbonate, pH 10.2. Absorbance at 320 nm (A320) as measured with a Varian model 219 spectrophotometer. Antibiotics (Sigma) were used in the sulfate form; the working molecular weight reflects the anhydrous weight of the base. At least five aminoglycoside concentrations, each replicated four times, were used to estimate the 50% epinephrine autoxidation inhibition value. Epinephrine concentrations yielding between 0.23 and 0.27 ΔA320 per minute was the basis for calculating the percent of inhibition. The data were analyzed by linear regression; standard deviations are shown.
When the unactivated aminoglycoside-aminocyclitol compounds are added at pH=10.2 to a cuvette containing epinephrine and 0.1 molar carbonate buffer, the aminoglycosides block the autoxidation of epinephrine to adrenochrome on approximately a mole-to-mole basis. This blockade is monitored spectrophotometrically at 320 nm and is a linear function of drug concentration. Using 9×10^-4 molar epinephrine, the linear region extends from 10^-5 to 10^-3 molar aminoglycoside. The sensitivity of this assay can be extended by lowering the starting epinephrine concentration.

Bacillus subtilis = assay: disc inhibition zone, Bacillus subtilis (Table 1); assay type: cell-based; settings: for zone of inhibition at 40 µg/disc: Bacillus subtilis, 40 μgm/disc, 30 degrees, 18 hours, read-out: mm inhibition zone due to 40 μgm/disc, organism - Bacillus subtilis; for mm inhibition zone, B. subtilis per log concentration antibiotic: slope by regression
Method: ^2 9 ml antibiotic #5 media (Difco), seeded to a concentration of 0.2
microliters of B. subtilis spores/500 ml agar, was dispensed into 15
× 100 ml plastic petri dishes. One quarter inch Schleicher and
Schuell sterile filter discs were placed on the agar and loaded with 20
microliters of dilutions of test compound including dilutions of 2000 ppm
600 ppm, 200 ppm, 60 ppm, and 20 ppm. The plates were incubated overnight
at 30 degrees centigrade, the inhibition zones measured at 18 hours. All
values were based on 6 tests at a given concentration; each plate was
corrected to an average kill zone due to 20 microliters of neomycin B bas
at a concentration of 30 ppm. Slopes and kill zones for 40 microgramloade
discs were obtained usi ng regression analysis.
(§2) ^3 Concentration of compound 4 MM 0500a1 was adjusted to represent th
(§3) total organic content. That is, 2000 ppm means 2000 parts organic materia
(§4) per million parts water.

E. Coli (ATC 25922) = assay: disc inhibition zone, E. Coli (Table 1); assay type: cell-based; settings: for zone of inhibition at 40 µg/disc: Escherichia coli, read-out: mm inhibition zone due to 40 μgm/disc, organism - E. Coli; for mm inhibition zone, E. Coli per log concentration antibiotic: slope, 2000 and 200 ppm
Method: (§5) ^1 9 ml antibiotic #5 agar (Difco), was poured warm into 15 ×
(§6) 100 mm Plastic petri dishes and seeded with test bacteria to a density of
(§7) 2 × 10^6 bacteria per ml (except B. subtilis which was seeded a
(§8) in item 2 below). Q uarter inch sterile filter discs were placed on the
(§9) agars and loaded with 20 microliters of test solutions at concentrations
(§10) of 2000 and 200 ppm. The antibiotic amounts therefore were 40
(§11) micrograms/disc or 4 micrograms/disc. Slopes were based on duplicate
(§12) tests of each substance at these two concentrations. All substances, each
(§13) at two concentrations were tested on each plate. Data were averaged.
as §2, §3, §4

S. aureus (ATCC 25923) = assay: disc inhibition zone, S. aureus (Table 1); assay type: cell-based; settings: for zone of inhibition at 40 µg/disc: Staphylococcus aureus, ATCC25923, read-out: mm inhibition zone due to 40 μgm/disc, Staphylococcus aureus (printed "coccus aureus"); for mm inhibition zone, S. aureus per log concentration antibiotic: slope, 2000 and 200 ppm
Method: as §5, §6, §7, §8, §9, §10, §11, §12, §13, §2, §3, §4

[2] = system: Pseudomonas maltophilispp.; assay: disc inhibition zone, Pseudomonas maltophilia (Table 1); assay type: cell-based; settings: read-out: mm inhibition zone due to 40 μgm/disc, organism - Pseudomonas maltophilispp.
Method: as §5, §6, §7, §8, §9, §10, §11, §12, §13, §2, §3, §4

[3] = system: Pseudomonas aeruginosa (ATCC 22853); assay: disc inhibition zone, Pseudomonas aeruginosa (Table 1); assay type: cell-based; settings: ATCC22853, read-out: mm inhibition zone due to 40 μgm/disc, organism - Pseudomonas aeruginosa
Method: as §5, §6, §7, §8, §9, §10, §11, §12, §13, §2, §3, §4

superoxide free radicals = assay: block of nitro-blue tetrazolium (NBT) reduction by superoxide; assay type: biochemical; settings: photoreduced riboflavin or xanthine-xanthine oxidase; 560 nm; unactivated aminoglycosides
Description: as §1
This is spectrophotometrically monitored at 560 nm, where the maximum absorbance of reduced NBT occurs. This procedure decreases in sensitivity at pH's higher than 7.0 and at very high (millimolar) drug concentrations. The reason for these limits is that superoxide reacts with aminoglycosides to generate a reducing compound which can interfere with the assay by directly reducing NBT.

[4] = assay type: physicochemical

Compound	hydroxyl free radical spin-adduct formation (hydroxyl free radicals)	potency enhancement of mixture of activated compound and parent compound (B. subtilis)	potency after coincubation with irradiated riboflavin vs riboflavin-free parent solution (B. subtilis)	IC50 (epinephrine autoxidation)	relative molar ratio for 50% inhibition (epinephrine autoxidation)	B/A Molar ratio (epinephrine molarity / molarity for 50% inhibition) (epinephrine autoxidation)	NBT reduction rate / blockade (superoxide free radicals)	also measured
NC[C@H]1O[C@H](O[C@H]2[C@H](O)[C@@H](O[C@H]3O[C@H](CO)[C@@H](O)[C@H](N)[C@H]3O)[C@H](N)C[C@@H]2N)[C@H](O)[C@@H](O)[C@@H]1O [kanamycin sulfate]	prevented in a concentration-dependent manner	–	–	–	–	–	–	–
Catalase	–	–	–	–	–	–	–	effect on bacterial killing by aminoglycosides (gentamicin, kanamycin) [1]: Catalase blockade occurs alone
NC[C@@H]1O[C@H](O[C@H]2[C@@H](O)[C@H](O[C@@H]3[C@@H](O)[C@H](N)C[C@H](N)[C@H]3O[C@H]3O[C@H](CN)[C@@H](O)[C@H](O)[C@H]3N)O[C@@H]2CO)[C@H](N)[C@@H](O)[C@@H]1O [NM, neomycin]	–	100%	enhanced potency	2100 ± 140 µM	~2	0.39	–	–
NC[C@H]1O[C@H](O[C@H]2[C@H](O)[C@@H](O)[C@H](N)C[C@@H]2N)[C@H](N)[C@@H](O)[C@@H]1O [Neomycin A base (neamine), Neomycin A base]	–	–	–	–	–	–	–	zone of inhibition at 40 µg/disc (Bacillus subtilis): 33.8 mm; mm inhibition zone, B. subtilis per log concentration antibiotic (Bacillus subtilis): 7.0 mm per log concentration; zone of inhibition at 40 µg/disc (E. Coli (ATC 25922)): 24.7 mm; mm inhibition zone, E. Coli per log concentration antibiotic (E. Coli (ATC 25922)): 7.8 mm per log concentration; zone of inhibition at 40 µg/disc (S. aureus (ATCC 25923)): 29.8 mm; mm inhibition zone, S. aureus per log concentration antibiotic (S. aureus (ATCC 25923)): 9.4 mm per log concentration; zone of inhibition at 40 µg/disc [2]: 0 mm; zone of inhibition at 40 µg/disc [3]: 0 mm
[H]/N=C(/N)N[C@H]1[C@H](O)[C@@H](O)[C@H](O[C@@H]2O[C@@H](C)[C@](O)(C=O)[C@H]2O[C@@H]2O[C@@H](CO)[C@H](O)[C@@H](O)[C@@H]2NC)[C@@H](N/C(N)=N\[H])[C@@H]1O [streptomycin sulfate]	prevented in a concentration-dependent manner	–	–	–	–	–	–	–
NC[C@@H]1O[C@H](O[C@H]2[C@@H](O)[C@H](O[C@@H]3[C@@H](O)[C@H](N)C[C@H](N)[C@H]3O[C@H]3O[C@H](CN)[C@@H](O)[C@H](O)[C@H]3N)O[C@@H]2CO)[C@H](N)[C@@H](O)[C@@H]1O [NMb, Neomycin B base]	–	–	–	–	–	–	the rate of NBT reduction is slowed proportionally to the concentration of aminoglycoside	zone of inhibition at 40 µg/disc (Bacillus subtilis): 23.3 mm; mm inhibition zone, B. subtilis per log concentration antibiotic (Bacillus subtilis): 5.6 mm per log concentration; zone of inhibition at 40 µg/disc (E. Coli (ATC 25922)): 14.9 mm; mm inhibition zone, E. Coli per log concentration antibiotic (E. Coli (ATC 25922)): 5.5 mm per log concentration; zone of inhibition at 40 µg/disc (S. aureus (ATCC 25923)): 17.2 mm; mm inhibition zone, S. aureus per log concentration antibiotic (S. aureus (ATCC 25923)): 6.1 mm per log concentration; zone of inhibition at 40 µg/disc [2]: 8.3 mm; solubility in DMSO [4]: DMSO- insoluble; zone of inhibition at 40 µg/disc [3]: 10.7 mm
[H]/N=C(/N)N[C@H]1[C@H](O)[C@@H](O)[C@H](O[C@@H]2O[C@@H](C)[C@](O)(C=O)[C@H]2O[C@@H]2O[C@@H](CO)[C@H](O)[C@@H](O)[C@@H]2NC)[C@@H](N/C(N)=N\[H])[C@@H]1O [SM, streptomycin]	–	18%	enhanced potency	740 ± 100 µM	~ 6	1.08	–	–
gentamicin [GM]	–	167%	enhanced potency	4400 ± 460 µM	~1	0.19	the rate of NBT reduction is slowed proportionally to the concentration of aminoglycoside	–
NC[C@@H]1O[C@H](O[C@H]2[C@@H](O)[C@H](O[C@@H]3[C@@H](O)[C@H](N)C[C@H](N)[C@H]3O[C@H]3O[C@H](CN)[C@@H](O)[C@H](O)[C@H]3N)O[C@@H]2CO)[C@H](N)[C@@H](O)[C@@H]1O [neoomycin B sulfate, neomycin B sulfate]	prevented in a concentration-dependent manner	–	–	–	–	–	–	–
NC[C@H]1O[C@H](O[C@H]2[C@H](O)[C@@H](O[C@H]3O[C@H](CO)[C@@H](O)[C@H](N)[C@H]3O)[C@H](N)C[C@@H]2N)[C@H](O)[C@@H](O)[C@@H]1O [KM, kanamycin]	–	25%	enhanced potency	700 ± 100 µM	~ 6	1.11	the rate of NBT reduction is slowed proportionally to the concentration of aminoglycoside	epinephrine autoxidation blocked (epinephrine autoxidation; fourfold molar excess of KM): 97%
